Assay results: patent publication US20050209104A1, “Dinoflagellate karlotoxins, methods of isolation and uses thereof” (priority 2002, published 2005)
Values after ≈ are worked out from the molar mass of the structure shown.

Tests used:
Oxyrrhis marina = experiment: Effect of KmTx 2 on a potential grazer; format: cell-based
Description: Oxyrrhis marina (1.7×10^4 cells/mil) and K. micrum (CCMP 2282) (3.5×10^4 cells/ml) were exposed, in triplicate, to 0, 0.1, 0.5, and 1 μg/ml KmTx 2 in six well non-tissue culture treated polystyrene plates (Becton Dickinson Labware, Lincoln Park N.J.). The O. marina culture was obtained through single cell isolation from a Chesapeake Bay water sample and was maintained in 15 psu artificial sea water (Instant Ocean Brand) using Rhodomonas sp. (CCMP 767) as a food source. O. marina was starved for 24 hours prior to exposures to reduce the number of food organisms. K. micrum (CCMP 2282) was maintained in 12 psu artificial sea water (Instant Ocean Brand) with f/2 nutrient mixture plus 1% soil extract as described in Deeds et al. (2002). Cell densities were measured at 1 and 24 hours using a Coulter Multisizer II particle counter by enumerating the 7-20 μm and the […] size fractions, respectively, for K. micrum and O. marina using a Coulter Accucomp software package (Coulter Electronics Limited, Miami Fla.). Significant differences (p<0.05) among mean cell numbers for different treatments were tested for using one-way analysis of variance with Scheffe's post hoc test using SPSS Base 10.0 statistical software (SPSS Inc., Chicago, Ill.).
Hemolytic activity remaining in solution was measured at 1 hour by mixing 100 μl of each treatment with an equal volume of diluted rainbow trout RBC suspension as described above in Example 3.

[1] = test system: Aspergillus niger (ATCC 1004); experiment: Anti-fungal broth microdilution assay (filamentous fungi); format: cell-based
Description: The following fungal strains were purchased from the American Type Culture Collection (Manassas, Va.), Aspergillus niger (ATCC 1004) as a representative filamentous fungi, and Candida albicans (ATCC 14053) as a representative yeast. Assays were performed according to the following National Committee for Clinical Laboratory Standards documents; M27-A2 Reference Method for Broth Dilution Antifungal Susceptibility Testing of Yeasts; Approved Standard—Second Edition([NCCLS, 2002), and M38-A Reference Method for Broth Dilution Antifungal Susceptibility Testing of Filamentous Fungi; Approved Standard (NCCLS, 2002). Procedures for the broth microdilution modification were followed for both species with the following exceptions; A. niger stocks were maintained on Potato Dextrose Agar at 25° C., while C. albicans was maintained on Yeast Malt Agar at 28° C., both according to ATCC recommendations. Amphotericin B was used as a positive control. Microdilution assays were performed in HyQ-RPMI-1640 media (HyClone, Logan, Utah.), with 2.05 mM L-glutamine, without sodium bicarbonate, pH 7.2 using dilutions of 1 mg/ml DMSO stocks of KmTx 2 and amphotericin B.
The following concentrations were tested for both KmTx2 and amphotericin B: 0.0625, 0.125, 0.25, 0.5, 1, 2, 4, 8, and 16 μg/ml. A maximum of 1.6% DMSO was added to any given well. Plates were incubated at 25 and 28° C., respectively, for A. niger and C. albicans. […] Amphotericin B and all culture media were purchased from Sigma-Aldrich (St. Louis, Mo.).

[2] = test system: zebrafish (Danio rerio-60 days old); experiment: Effect of KmTx 2 on fish (mortality and histology); format: in vivo
Description: Zebrafish (Danio rerio-60 days old) were exposed to 0.1, 0.5, 1, or 2 μg/ml KmTx 2 in 50 ml of aerated reconstituted fresh water (soft) [ASTM, 1992 #125]. Toxin dilutions were made in MeOH (200 μl max. per treatment) and controls were exposed to 200 μl MeOH only. Three fish were exposed per replicate, three replicates per treatment. […] Upon death, fish were preserved in neutral buffered formalin and prepared for histological examination as described in Noga 2000.

[3] = test system: rainbow trout erythrocytes; experiment: Osmotic protection assay; format: cell-based; settings: 30 mM osmolyte, even at 1 μg/ml KmTx 2
Description: The following osmolytes (all purchased from Sigma-Aldrich Co., St Louis, Mo.) were prepared as 30 mM solutions using the Tris buFFer +CaCl2: sucrose (MW 342.3), polyethylene glycol (MW 400), polyethylene glycol (MW 600), maltohexaose (MW 990.0), polyethylene glycol (MW 8,000), dextran (MW 10,000). Osmolarity of each solution was measured using a Vapro 5520 vapor pressure osmometer (Wescor Inc., Logan Utah). […] The osmolarities of PEG 8,000 and 10,000 MW dextran were approximately double this amount (ca. 640 mOsm).
Assays were performed by preparing trout erythrocyte suspensions and toxin dilutions (0, 0.25 0.5, and 1 μg/ml) in the appropriate osmolyte solution and performing the hemolysis assay as described in supplemental materials.

With `C=C(CC[C@H](O)[C@H]1O[C@H](C[C@@H](O)[C@H](O)[C@H](C)CCC[C@@H](O)[C@H](O)[C@H](O)[C@@H](C)CC[C@@H](O)[C@H](O)[C@H](C)C[C@@H](O)CCC[C@@H](O)CCC[C@@H](O)/C=C/C[C@@H](O)CO)[C@@H](O)[C@@H](O)[C@@H]1O)[C@H](O)[C@H](O)[C@@H]1C[C@H](O)[C@H](O)[C@@H]([C@H](O)[C@@H](O)/C=C/CCCCCCCC/C=C/C=C/Cl)O1` [KmTx 2] the “reduction of O. marina cell densities” value (Oxyrrhis marina; 1 μg/ml, after 24 hours) was over 90%, the “cell lysis of O. marina” value (Oxyrrhis marina; 0.5 and 1 μg/ml treatments at 1 hour) was “significant (P<0.05) cell lysis” and the “hemolytic activity remaining in solution” value (Oxyrrhis marina; after 1 hour, all KmTx 2 concentrations, O. marina compared to K. micrum exposed cultures) was “reduced”. For the same compound, the “anti-fungal activity, fold lower than for amphotericin B” value ([1]; depending on species tested (A. niger, C. albicans)) was 10-100 fold, the “Minimal inhibitory concentration (MIC)” value ([1]; lowest dose with no growth after 96 hours, 25° C.) was 8 mg/L (≈ 5.94 µM) and the survival ([2]; 0.1 μg/ml, 6 hr exposure) was “survived the full 6 hr exposure”. The “histological examination of gills” value ([2]; 0.1 μg/ml, 6 hrs) was “loss of secondary structure of gill lamellae and sloughing of gill epithelial tissue”, the “histological examination of gills” value ([2]; 0.5 μg/ml) was “Severe necrosis and degeneration of gill tissue” and the “time to death, all fish” value ([2]; 0.5 μg/ml) was under 1 h. For the same compound, the “molecular weight of inert osmolyte giving complete prevention of lysis” value [3] was > 8,000 Da.
